Test results from patent publication US20250340591A1, “COMPOSITION FOR PREVENTING OR TREATING INFLAMMATORY BOWEL DISEASE CONTAINING NOVEL COMPOUND” (ANYGEN CO., LTD., priority 2021, published 2025).
Square brackets hold non-standard residues; d marks the D form. Peptide text beside a SMILES is read from it. * marks the point of attachment. His(Trt) = N[C@@H](Cc1cn(C(c2ccccc2)(c2ccccc2)c2ccccc2)cn1)C(=O)O; dHis(Trt) = N[C@H](Cc1cn(C(c2ccccc2)(c2ccccc2)c2ccccc2)cn1)C(=O)O; Biotin = O=C1N[C@H]2[C@H](CS[C@H]2CCCCC(=O)*)N1; Bip = N[C@@H](Cc1ccc(-c2ccccc2)cc1)C(=O)O; dPhe(4-Cl) = N[C@H](Cc1ccc(Cl)cc1)C(=O)O; Octanoyl = CCCCCCCC(=O)*

Target: T1, GPR39 (Homo sapiens, UniProt O43194)
T1 sequence (O43194 1-453): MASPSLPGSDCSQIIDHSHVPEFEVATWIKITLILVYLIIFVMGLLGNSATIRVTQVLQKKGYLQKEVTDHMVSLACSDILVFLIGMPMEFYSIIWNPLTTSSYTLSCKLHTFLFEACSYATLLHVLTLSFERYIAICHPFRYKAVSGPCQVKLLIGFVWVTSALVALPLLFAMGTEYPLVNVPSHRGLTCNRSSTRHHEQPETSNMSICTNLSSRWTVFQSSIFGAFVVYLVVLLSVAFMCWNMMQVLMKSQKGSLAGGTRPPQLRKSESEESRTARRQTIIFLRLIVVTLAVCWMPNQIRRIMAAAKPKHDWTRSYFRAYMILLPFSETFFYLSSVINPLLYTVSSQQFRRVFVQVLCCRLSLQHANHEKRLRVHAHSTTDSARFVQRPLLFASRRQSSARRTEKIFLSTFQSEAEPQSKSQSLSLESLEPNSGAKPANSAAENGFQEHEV
Test: luciferase assay system (SRE luciferase reporter gene, CV-1 cells expressing GPR39)
Type: cell-based
Parameters: expressed in transfected cells; host or cells: CV-1 fibroblast cell line (Korea Cell Line Bank), adenoviral transduction at 50 MOI

| SMILES | ECmax (−fold induction over basal) [fold induction over basal] | activity level for GPR39 (in words) (comment on Table 3) |
| --- | --- | --- |
| CCCCCCCC(=O)NCCCC[C@H](NC(=O)[C@H](Cc1cn(C(c2ccccc2)(c2ccccc2)c2ccccc2)cn1)NC(=O)CCCC[C@@H]1SC[C@@H]2NC(=O)N[C@@H]21)C(=O)N[C@@H](Cc1ccc(-c2ccccc2)cc1)C(=O)N[C@@H](Cc1ccc(O)cc1)C(=O)O [HKFY-45, ((S)-3-([1,1′-biphenyl]-4-yl)-2-((S)-6-octanamido-2-((S)-2-(5-((3aS,4S,6aR)-2-oxohexahydro-1H-thieno[3,4-d]imidazol-4-yl)pentanamido)-3-(1-trityl-1H-imidazol-4-yl)propanamido)hexanamido)propanoyl)-L-tyrosine] (Biotin-[His(Trt)]K(Octanoyl)[Bip]Y-OH) | 21 ± 2.58 | – |
| CCCCCCCC(=O)NCCCC[C@H](NC(=O)[C@@H](N)Cc1cn(C(c2ccccc2)c2ccc(OC)cc2)cn1)C(=O)N[C@H](Cc1ccc(C)cc1)C(=O)N[C@@H](Cc1ccc(O)cc1)C(=O)O (stereo partly drawn) [HKFY-64, ((2R)-2-((2S)-2-((2S)-2-amino-3-(1-((4-methoxyphenyl)(phenyl)methyl)-1H-imidazol-4-yl)propanamido)-6-octanamidohexanamido)-3-(p-tolyl)propanoyl)-L-tyrosine] | 16 ± 1.5 | higher activity level than other HKFY derivatives |
| CCCCCCCC(=O)NCCCC[C@H](NC(=O)[C@H](N)Cc1cn(C(c2ccccc2)(c2ccccc2)c2ccccc2)cn1)C(=O)N[C@@H](Cc1ccccc1)C(=O)N[C@@H](Cc1ccc(O)cc1)C(=O)O [HKFY-4, N6-octanoyl-N2-(Nt-trityl-D-histidyl)-L-lysyl-L-phenylalanyl-L-tyrosine] (H-[dHis(Trt)]K(Octanoyl)FY-OH) | 16.8 ± 1.87 | – |

Continued, in another order:

| ECmax (−fold induction over basal) [fold induction over basal] | SMILES | activity level for GPR39 (in words) (comment on Table 3) |
| --- | --- | --- |
| 12.1 ± 0.02 | CCCCCCCC(=O)NCCCC[C@H](NC(=O)[C@@H](N)Cc1cn(C(c2ccccc2)(c2ccccc2)c2ccccc2)cn1)C(=O)N[C@@H](Cc1ccccc1)C(=O)N[C@@H](Cc1ccc(O)cc1)C(=O)N[C@@H](CCC(N)=O)C(=O)N[C@@H](CC(N)=O)C(=O)N[C@@H](CCC(N)=O)C(=O)N[C@@H](C)C(=O)N[C@@H](CCCNC(=N)N)C(=O)N[C@@H](Cc1ccccc1)C(N)=O [HKFY-43, (S)-N1-((S)-1-(((S)-1-(((S)-1-amino-1-oxo-3-phenylpropan-2-yl)amino)-5-guanidino-1-oxopentan-2-yl)amino)-1-oxopropan-2-yl)-2-((2S,5S,8S,11S,14S)-2-(2-amino-2-oxoethyl)-14-((S)-2-amino-3-(1-trityl-1H-imidazol-4-yl)propanamido)-5-(3-amino-3-oxopropyl)-11-benzyl-8-(4-hydroxybenzyl)-4,7,10,13,20-pentaoxo-3,6,9,12,19-pentaazaheptacosanamido)pentanediamide] (H-[His(Trt)]K(Octanoyl)FYQNQARF-NH2) | – |
| 24.7 ± 2.6 | CCCCCCCC(=O)NCCCC[C@H](NC(=O)[C@@H](N)Cc1cn(C(c2ccccc2)(c2ccccc2)c2ccccc2)cn1)C(=O)N[C@H](Cc1ccc(Cl)cc1)C(=O)N[C@H](Cc1ccc(O)cc1)C(=O)O [HKFY-15, ((R)-2-((S)-2-((S)-2-amino-3-(1-trityl-1H-imidazol-4-yl)propanamido)-6-octanamidohexanamido)-3-(4-chlorophenyl)propanoyl)-D-tyrosine] (H-[His(Trt)]K(Octanoyl)[dPhe(4-Cl)][dY]-OH) | – |
| 20.26 ± 2.7 | CCCCCCCC(=O)NCCCC[C@H](NC(=O)[C@@H](N)Cc1cn(C(c2ccccc2)c2ccc(OC)cc2)cn1)C(=O)N[C@@H](Cc1ccccc1)C(=O)N[C@@H](Cc1ccc(O)cc1)C(=O)O (stereo partly drawn) [HKFY-20, N2-(Nt-((4-methoxyphenyl)(phenyl)methyl)-L-histidyl)-N6-octanoyl-L-lysyl-L-phenylalanyl-L-tyrosine] | – |
